Legend:
blackgrass = assay: Test C pre-/postemergence test; type: in vivo, Alopecurus myosuroides
Procedure, shortened: (§1)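 Compounds in a non-phytotoxic solvent with surfactant applied preemergence to seeded pots and, at the same time, postemergence to plants 2–18 cm tall (1- to 4-leaf stage). Paddy tests: pots flooded to 3 cm, compound applied into the water, depth held throughout.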

green foxtail = assay: Test C pre-/postemergence test; type: in vivo, Setaria viridis
Procedure, shortened: as §1

crabgrass = assay: Test A pre-/postemergence greenhouse test; type: in vivo, Digitaria sanguinalis; conditions: for Crabgrass, Large plant response rating: 0 to 100 scale
Procedure, shortened: (§2)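 Untreated controls served as the reference for visual injury ratings taken about ten days after spraying. The non-phytotoxic solvent/surfactant formulation was applied preemergence to seeded loam and sand and postemergence to plants two to ten cm high.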

common ragweed = assay: Test C pre-/postemergence test; type: in vivo, Ambrosia elation
Procedure, shortened: as §1

redroot pigweed = assay: Test A pre-/postemergence greenhouse test; type: in vivo, Amaranthus retroflexus; conditions: for Pigweed plant response rating: 0 to 100 scale
Procedure, shortened: as §2

eastern black nightshade = assay: Test C pre-/postemergence test; type: in vivo, Solanum ptycanthum
Procedure, shortened: as §1

wheat = assay: Test C pre-/postemergence test; type: in vivo, Triticum aestivum
Procedure, shortened: as §1

yellow nutsedge = assay: Test C pre-/postemergence test; type: in vivo, Cyperus esculentus
Procedure, shortened: as §1

Goosegrass = assay: Test C pre-/postemergence test; type: in vivo, Eleusin indica
Procedure, shortened: as §1

morningglory = assay: Test A pre-/postemergence greenhouse test; type: in vivo, Ipomoea spp.; conditions: for Morningglory plant response rating: 0 to 100 scale
Procedure, shortened: as §2

duck salad = assay: Test C flooded paddy test; type: in vivo, Heteranthera limosa; conditions: Flood
Procedure, shortened: (§3)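 Ratings were visual and made relative to untreated controls after 13 to 15 greenhouse days.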

wild oat = assay: Test C pre-/postemergence test; type: in vivo, Avena fatua
Procedure, shortened: as §1

[1] = tested on: common (oilseed) sunflower; assay: Test C pre-/postemergence test; type: in vivo, Helianthus annuus
Procedure, shortened: as §1

woolly cupgrass = assay: Test C pre-/postemergence test; type: in vivo, Eriochloa villosa
Procedure, shortened: as §1

corn = assay: Test C pre-/postemergence test; type: in vivo, Zea mays
Procedure, shortened: as §1

Italian ryegrass = assay: Test C pre-/postemergence test; type: in vivo, Lolium multiflorum; conditions: for Ryegrass, Italian plant response rating: preemergence, scale 0 (no effect) to 100 (complete control)
Procedure, shortened: as §1

umbrella sedge = assay: Test C flooded paddy test; type: in vivo, Cyperus difformis; conditions: Flood
Procedure, shortened: as §3

[2] = 62 g ai/ha, Preemergence, scale 0 to 100
[3] = 125 g ai/ha, preemergence, scale 0 (no effect) to 100 (complete control)
[4] = Preemergence, 31 g ai/ha, scale 0 to 100 (0 no effect, 100 complete control)
[5] = preemergence, 250 g ai/ha, scale 0 (no effect) to 100 (complete control)
[6] = Postemergence, 125 g ai/ha, 0 to 100 scale where 0 is no effect and 100 is complete control
[7] = Postemergence, 500 g ai/ha, 0 is no effect, 100 is complete control
[8] = Preemergence, 125 g ai/ha, 0 no effect, 100 complete control
[9] = Preemergence, 500 g ai/ha, 0 no effect, 100 complete control
[10] = 62 g ai/ha, scale 0 to 100 (0 no effect, 100 complete control)
[11] = 250 g ai/ha, scale 0 to 100, 0 no effect, 100 complete control, 13 to 15 days

With `CCc1cc[n+]([O-])c([S+]([O-])Cc2c(C(F)(F)F)nn(C)c2OC(F)F)c1` (stereo not drawn) [Compound 101] the “Blackgrass plant response rating” value (blackgrass; [2]) was 30, the “Blackgrass plant response rating” value (blackgrass; [3]) was 70 and the “Plant response rating, Blackgrass” value (blackgrass; [4]) was 0. The “Blackgrass plant response rating” value (blackgrass; [5]) was 90, the “Foxtail, Green plant response rating” value (green foxtail; [2]) was 95 and the “Foxtail, Green plant response rating” value (green foxtail; [3]) was 98. For the same molecule, the “Plant response rating, Foxtail, Green” value (green foxtail; [4]) was 85, the “Foxtail, Green plant response rating” value (green foxtail; [5]) was 100 and the “Plant response rating, Crabgrass, Large” value (crabgrass; [6]) was 60. For the same molecule, the “Crabgrass, Large plant response rating” value (crabgrass; [7]) was 90, the “Crabgrass, Large plant response rating” value (crabgrass; [8]) was 90 and the “Crabgrass, Large plant response rating” value (crabgrass; [9]) was 100. For the same molecule, the “Ragweed plant response rating” value (common ragweed; [2]) was 10, the “Ragweed plant response rating” value (common ragweed; [3]) was 100 and the “Plant response rating, Ragweed” value (common ragweed; [4]) was 0. The “Ragweed plant response rating” value (common ragweed; [5]) was 100, the “Plant response rating, Pigweed” value (redroot pigweed; [6]) was 70 and the “Pigweed plant response rating” value (redroot pigweed; [7]) was 90. For the same molecule, the “Pigweed plant response rating” value (redroot pigweed; [8]) was 100, the “Pigweed plant response rating” value (redroot pigweed; [9]) was 100 and the “Nightshade plant response rating” value (eastern black nightshade; [2]) was 80. The “Nightshade plant response rating” value (eastern black nightshade; [3]) was 95, the “Plant response rating, Nightshade” value (eastern black nightshade; [4]) was 10 and the “Nightshade plant response rating” value (eastern black nightshade; [5]) was 100. For the same molecule, the “Wheat plant response rating” value (wheat; [2]) was 65, the “Wheat plant response rating” value (wheat; [3]) was 85 and the “Plant response rating, Wheat” value (wheat; [4]) was 50. For the same molecule, the “Wheat plant response rating” value (wheat; [5]) was 95, the “Nutsedge, Yellow plant response rating” value (yellow nutsedge; [2]) was 20 and the “Nutsedge, Yellow plant response rating” value (yellow nutsedge; [3]) was 60. The “Plant response rating, Nutsedge, Yellow” value (yellow nutsedge; [4]) was 0, the “Nutsedge, Yellow plant response rating” value (yellow nutsedge; [5]) was 100 and the “Goosegrass plant response rating” value (Goosegrass; [2]) was 85. The “Goosegrass plant response rating” value (Goosegrass; [3]) was 100, the “Plant response rating, Goosegrass” value (Goosegrass; [4]) was 80 and the “Goosegrass plant response rating” value (Goosegrass; [5]) was 100. The “Plant response rating, Morningglory” value (morningglory; [6]) was 70, the “Morningglory plant response rating” value (morningglory; [7]) was 100 and the “Morningglory plant response rating” value (morningglory; [8]) was 80. The “Morningglory plant response rating” value (morningglory; [9]) was 100, the “Plant response rating, Ducksalad” value (duck salad; [10]) was 0 and the “Plant response rating, Ducksalad” value (duck salad; [11]) was 80. The “Oat, Wild plant response rating” value (wild oat; [2]) was 90, the “Oat, Wild plant response rating” value (wild oat; [3]) was 90 and the “Plant response rating, Oat, Wild” value (wild oat; [4]) was 50. The “Oat, Wild plant response rating” value (wild oat; [5]) was 98, the “Sunflower plant response rating” value [1, 2] was 0 and the “Sunflower plant response rating” value [1, 3] was 5. The “Plant response rating, Sunflower” value [1, 4] was 0, the “Sunflower plant response rating” value [1, 5] was 60 and the “Cupgrass, Woolly plant response rating” value (woolly cupgrass; [2]) was 80. The “Cupgrass, Woolly plant response rating” value (woolly cupgrass; [3]) was 85, the “Plant response rating, Cupgrass, Woolly” value (woolly cupgrass; [4]) was 40 and the “Cupgrass, Woolly plant response rating” value (woolly cupgrass; [5]) was 95. The “Corn plant response rating” value (corn; [2]) was 75, the “Corn plant response rating” value (corn; [3]) was 90 and the “Plant response rating, Corn” value (corn; [4]) was 40. The “Corn plant response rating” value (corn; [5]) was 98, the “Ryegrass, Italian plant response rating” value (Italian ryegrass; 125 g ai/ha) was 0 and the “Plant response rating, Ryegrass, Italian” value (Italian ryegrass; [4]) was 0. For the same molecule, the “Ryegrass, Italian plant response rating” value (Italian ryegrass; 250 g ai/ha) was 60, the “Plant response rating, Sedge, Umbrella” value (umbrella sedge; [10]) was 0 and the “Plant response rating, Sedge, Umbrella” value (umbrella sedge; [11]) was 90.

Reference: US20100298141A1, “SUBSTITUTED PYRIDINE N-OXIDE HERBICIDES” (E. I. DU PONT DE NEMOURS AND COMPANY, priority 2007, published 2010)
